How the values were obtained:
hMAO-B = biological target: T1, hMAO-B (Homo sapiens, UniProt P27338); assay: biochemical; conditions: for inhibition at 1000 µM: 10^−3 M; for inhibition at 1000 µM / inhibition at 100 µM: read-out: MAO-B % Inhibition; for inhibition at 100 µM: 10^−4 M; for IC50: read-out: MAO-B IC50
T1 construct: purchased Sigma-Aldrich (Steinheim, Germany)
T1 sequence (P27338 1-520): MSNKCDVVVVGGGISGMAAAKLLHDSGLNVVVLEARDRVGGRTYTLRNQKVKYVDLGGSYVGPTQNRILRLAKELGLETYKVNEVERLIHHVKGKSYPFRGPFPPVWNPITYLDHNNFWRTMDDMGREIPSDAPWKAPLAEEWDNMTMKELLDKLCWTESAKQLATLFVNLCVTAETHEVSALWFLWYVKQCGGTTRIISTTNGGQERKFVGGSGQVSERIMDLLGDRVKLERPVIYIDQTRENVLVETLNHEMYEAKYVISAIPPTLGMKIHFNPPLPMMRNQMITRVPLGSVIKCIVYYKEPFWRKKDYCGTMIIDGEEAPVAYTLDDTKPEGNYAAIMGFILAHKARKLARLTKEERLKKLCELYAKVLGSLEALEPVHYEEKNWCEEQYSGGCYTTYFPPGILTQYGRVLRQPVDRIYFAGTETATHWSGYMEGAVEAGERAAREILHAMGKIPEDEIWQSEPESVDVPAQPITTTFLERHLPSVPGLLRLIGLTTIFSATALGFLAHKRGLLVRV
Method: Test compounds and standard drugs were used in the same concentrations as in AChE and BChE enzyme activity assays. […] To investigate the MAO-A and MAO-B enzyme inhibition profiles of the synthesized compounds, the fluorometric enzyme inhibition assay was carried out, as previously defined by us. Ampliflu™ Red (10-Acetyl-3,7-dihydroxyphenoxazine) was used as a fluorescence reagent in this assay.

AChE = AChE (Homo sapiens, UniProt P22303); assay: biochemical; conditions: for inhibition at 1000 µM: 10^−3 M; for inhibition at 100 µM: 10^−4 M; for IC50: 10^−3–10^−9 M concentrations
AChE, sequence (P22303 32-614): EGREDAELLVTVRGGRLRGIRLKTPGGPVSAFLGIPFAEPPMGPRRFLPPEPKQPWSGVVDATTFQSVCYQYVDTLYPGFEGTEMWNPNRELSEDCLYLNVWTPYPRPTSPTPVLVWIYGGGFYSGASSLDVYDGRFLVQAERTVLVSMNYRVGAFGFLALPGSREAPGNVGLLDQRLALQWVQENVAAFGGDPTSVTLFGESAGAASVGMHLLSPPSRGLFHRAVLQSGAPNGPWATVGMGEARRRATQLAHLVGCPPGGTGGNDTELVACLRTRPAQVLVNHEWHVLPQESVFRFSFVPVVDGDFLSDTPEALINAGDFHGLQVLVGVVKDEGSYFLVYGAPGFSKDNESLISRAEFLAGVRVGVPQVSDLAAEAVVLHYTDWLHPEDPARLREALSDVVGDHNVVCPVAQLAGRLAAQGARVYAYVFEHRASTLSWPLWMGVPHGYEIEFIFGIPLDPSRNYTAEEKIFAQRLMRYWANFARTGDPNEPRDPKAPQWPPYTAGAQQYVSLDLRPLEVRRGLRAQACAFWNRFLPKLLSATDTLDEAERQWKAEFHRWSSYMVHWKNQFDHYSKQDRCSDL

hMAO-A = biological target: T2, hMAO-A (Homo sapiens, UniProt P21397); assay: Monoamine oxidase fluorometric inhibition assay, MAO-A; assay type: biochemical; conditions: for inhibition at 1000 µM: 10^−3 M; for inhibition at 100 µM: 10^−4 M
T2 construct: purchased Sigma-Aldrich (Steinheim, Germany)
T2 sequence (P21397 1-527): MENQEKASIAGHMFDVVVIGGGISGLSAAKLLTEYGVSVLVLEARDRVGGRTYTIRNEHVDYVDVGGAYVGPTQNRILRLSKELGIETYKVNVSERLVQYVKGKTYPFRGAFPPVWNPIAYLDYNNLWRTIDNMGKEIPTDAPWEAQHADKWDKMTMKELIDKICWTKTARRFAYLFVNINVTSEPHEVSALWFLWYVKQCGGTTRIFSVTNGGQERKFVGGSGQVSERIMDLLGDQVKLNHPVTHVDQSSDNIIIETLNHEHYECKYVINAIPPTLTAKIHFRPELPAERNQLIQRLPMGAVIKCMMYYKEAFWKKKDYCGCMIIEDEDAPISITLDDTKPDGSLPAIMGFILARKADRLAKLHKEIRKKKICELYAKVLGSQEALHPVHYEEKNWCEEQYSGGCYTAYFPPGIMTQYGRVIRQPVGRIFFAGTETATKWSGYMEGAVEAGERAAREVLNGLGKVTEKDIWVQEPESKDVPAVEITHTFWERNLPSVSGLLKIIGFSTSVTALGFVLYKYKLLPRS
Method: In order to investigate the monoamine oxidase enzyme inhibitory effects of synthesized compounds, MAO-A and MAO-B enzyme activities were performed by using a fluorometric inhibition method. Moclobemide and selegiline were used as standard drugs for MAO-A and MAO-B enzymes, respectively. Test compounds and standard drugs were used in the same concentrations as in AChE and BChE enzyme activity assays. In Table 2, MAO enzyme inhibitory results are given. […]. To investigate the MAO-A and MAO-B enzyme inhibition profiles of the synthesized compounds, the fluorometric enzyme inhibition assay was carried out, as previously defined by us. Ampliflu™ Red (10-Acetyl-3,7-dihydroxyphenoxazine) was used as a fluorescence reagent in this assay.

BChE = BChE (Homo sapiens, UniProt P06276); assay: Anticholinesterase activity assay (modified Ellman method), BChE; assay type: biochemical; conditions: for inhibition at 1000 µM: 10^−3 M; for inhibition at 100 µM: 10^−4 M
BChE, sequence (P06276 29-602): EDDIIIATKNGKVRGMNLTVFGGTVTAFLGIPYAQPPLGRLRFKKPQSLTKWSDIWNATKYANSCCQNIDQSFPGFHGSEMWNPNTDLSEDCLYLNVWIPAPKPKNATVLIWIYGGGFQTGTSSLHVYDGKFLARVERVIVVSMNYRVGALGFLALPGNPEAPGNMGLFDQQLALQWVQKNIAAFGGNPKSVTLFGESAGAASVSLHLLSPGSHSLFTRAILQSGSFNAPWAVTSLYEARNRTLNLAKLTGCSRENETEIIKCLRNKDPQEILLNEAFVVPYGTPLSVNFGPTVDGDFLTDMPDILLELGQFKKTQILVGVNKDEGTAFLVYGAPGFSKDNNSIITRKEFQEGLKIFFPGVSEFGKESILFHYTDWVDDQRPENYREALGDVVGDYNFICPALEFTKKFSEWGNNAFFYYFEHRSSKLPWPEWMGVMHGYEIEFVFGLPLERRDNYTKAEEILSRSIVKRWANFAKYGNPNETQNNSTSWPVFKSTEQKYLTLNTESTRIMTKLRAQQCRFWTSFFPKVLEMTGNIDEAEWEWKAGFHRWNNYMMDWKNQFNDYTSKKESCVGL
Method: . Initially, all the obtained compounds were tested at 10^−3 M and 10^−4 M concentrations and the ChE inhibitory results are outlined in Table 1. […]. Compounds 3a, 3c and 3i indicated more than 50% activity at the 10^−4 M concentration. […]. […] According to the results of activity tests, some general results can be listed as follows. The compounds 3a, 3c and 3i contain the non-substituted, methoxy and trifluoromethyl substituents on the phenyl ring, respectively. […]
The inhibitory capacity of the obtained compounds on AChE and BChE biological activities was assessed using a modified Ellman’s spectrometric method, as described in our previous studies. Donepezil were used as a reference drug. All pipetting procedures in the enzyme inhibition assay were carried out via a robotics system, Biotek Precision XS (Winooski, VT, USA). A BioTek-Synergy H1 microplate reader (Winooski, VT, USA) was used to carry out measurements of percent inhibition at 412 nm, and the IC50 values of the selected compounds were performed as previously described.

Row | Structure (SMILES) | inhibition at 1000 µM (hMAO-B) | inhibition at 100 µM (hMAO-B) | IC50 (hMAO-B) | inhibition at 1000 µM (AChE) | inhibition at 100 µM (AChE) | inhibition at 1000 µM (hMAO-A) | inhibition at 100 µM (hMAO-A) | inhibition at 1000 µM (BChE) | inhibition at 100 µM (BChE) | IC50 (AChE)
1 | O=[N+]([O-])c1ccc(-c2csc(NN=Cc3ccc(N4CCN(c5ccc(F)cc5)CC4)cc3)n2)cc1 [Compound 3d, 2-(2-(4-(4-(4-fluorophenyl)piperazin-1-yl)benzylidene)hydrazineyl)-4-(4-nitrophenyl)thiazole] | 75.7 ± 1.06% | 65.2 ± 0.97% | 5200 ± 153 nM | 76.7 ± 1.12% | 38.5 ± 0.76% | 51 ± 0.97% | 39.1 ± 0.71% | 35.4 ± 0.49% | 31.9 ± 0.56% | –
2 | O=C(NCCN1CCOCC1)c1ccc(Cl)cc1 [Moclobemide, reference compound] | – | – | – | – | – | 91.2 ± 2.8% | 78.2 ± 2.55% | – | – | –
3 | Fc1ccc(N2CCN(c3ccc(C=NNc4nc(-c5ccc(Cl)cc5)cs4)cc3)CC2)cc1 [Compound 3g, 4-(4-chlorophenyl)-2-(2-(4-(4-(4-fluorophenyl)piperazin-1-yl)benzylidene)hydrazineyl)thiazole] | 68.1 ± 1.12% | 41.8 ± 0.86% | – | 64.5 ± 0.67% | 37.8 ± 0.6% | 48.2 ± 0.97% | 30.2 ± 0.5% | 38.54 ± 0.35% | 20.2 ± 0.35% | –
4 | Fc1ccc(N2CCN(c3ccc(C=NNc4nc(-c5ccc(Cl)cc5Cl)cs4)cc3)CC2)cc1 [Compound 3k, 4-(2,4-dichlorophenyl)-2-(2-(4-(4-(4-fluorophenyl)piperazin-1-yl)benzylidene)hydrazineyl)thiazole] | 55.1 ± 0.92% | 34.2 ± 0.81% | – | 35.7 ± 0.57% | 20.4 ± 0.3% | 35.2 ± 0.48% | 19.1 ± 0.4% | 28.59 ± 0.25% | 21 ± 0.61% | –
5 | Cc1ccc(-c2csc(NN=Cc3ccc(N4CCN(c5ccc(F)cc5)CC4)cc3)n2)c(C)c1 [Compound 3j, 4-(2,4-dimethylphenyl)-2-(2-(4-(4-(4-fluorophenyl)piperazin-1-yl)benzylidene)hydrazineyl)thiazole] | 69.2 ± 1.2% | 40.8 ± 0.92% | – | 53.8 ± 0.62% | 26.9 ± 0.55% | 48.2 ± 0.88% | 40.2 ± 0.52% | 31.9 ± 0.47% | 25.7 ± 0.49% | –
6 | Fc1ccc(N2CCN(c3ccc(C=NNc4nc(-c5ccc(C(F)(F)F)cc5)cs4)cc3)CC2)cc1 [Compound 3i, 2-(2-(4-(4-(4-fluorophenyl)piperazin-1-yl)benzylidene)hydrazineyl)-4-(4-(trifluoromethyl)phenyl)thiazole] | 59.1 ± 0.77% | 40.2 ± 0.58% | – | 80.7 ± 1.02% | > 50% | 38.2 ± 0.78% | 22.8 ± 0.54% | 45.4 ± 0.52% | 35.4 ± 0.39% | 216 ± 10 nM
7 | N#Cc1ccc(-c2csc(NN=Cc3ccc(N4CCN(c5ccc(F)cc5)CC4)cc3)n2)cc1 [Compound 3e, 4-(2-(2-(4-(4-(4-fluorophenyl)piperazin-1-yl)benzylidene)hydrazineyl)thiazol-4-yl)benzonitrile] | 58.1 ± 0.9% | 43.1 ± 0.71% | – | 71.2 ± 0.9% | 42.3 ± 0.63% | 47.2 ± 0.88% | 23.5 ± 0.6% | 31.8 ± 0.61% | 24.9 ± 0.38% | –
8 | Fc1ccc(N2CCN(c3ccc(C=NNc4nc(-c5ccccc5)cs4)cc3)CC2)cc1 [Compound 3a, 2-(2-(4-(4-(4-fluorophenyl)piperazin-1-yl)benzylidene)hydrazineyl)-4-phenylthiazole] | 78.2 ± 1.05% | 70.2 ± 0.99% | 2110 ± 86 nM | 84.2 ± 0.89% | – | 38.2 ± 0.95% | 20.1 ± 0.63% | 21.5 ± 0.38% | 19.3 ± 0.28% | 49.6 ± 2 nM
9 | Fc1ccc(N2CCN(c3ccc(C=NNc4nc(-c5ccc(Br)cc5)cs4)cc3)CC2)cc1 [Compound 3h, 4-(4-bromophenyl)-2-(2-(4-(4-(4-fluorophenyl)piperazin-1-yl)benzylidene)hydrazineyl)thiazole] | 68.9 ± 1.25% | 39.1 ± 0.63% | – | 75.3 ± 1.06% | 47.1 ± 0.74% | 34.2 ± 0.58% | 22.2 ± 0.47% | 40.6 ± 0.68% | 35.5 ± 0.41% | –
10 | Fc1ccc(-c2csc(NN=Cc3ccc(N4CCN(c5ccc(F)cc5)CC4)cc3)n2)cc1 [Compound 3f, 4-(4-fluorophenyl)-2-(2-(4-(4-(4-fluorophenyl)piperazin-1-yl)benzylidene)hydrazineyl)thiazole] | 57.3 ± 1.03% | 39.2 ± 0.79% | – | 78.4 ± 1.04% | 48.1 ± 0.87% | 30.1 ± 0.47% | 19.3 ± 0.41% | 28.2 ± 0.42% | 20.4 ± 0.35% | –
11 | Cc1ccc(-c2csc(NN=Cc3ccc(N4CCN(c5ccc(F)cc5)CC4)cc3)n2)cc1 [Compound 3b, 2-(2-(4-(4-(4-fluorophenyl)piperazin-1-yl)benzylidene)hydrazineyl)-4-(p-tolyl)thiazole] | 60.8 ± 1.11% | 46.7 ± 0.98% | – | 75.3 ± 1.05% | 45.9 ± 0.88% | 44.2 ± 1.08% | 25.8 ± 0.8% | 37.4 ± 0.67% | 25.3 ± 0.58% | –
